Data: patent US20230141403A1 (Hoffmann-La Roche Inc., priority 2020, published 2023)
Where a name gives a salt, the structure may show the parent alone.

system: Acinetobacter baumannii ATCC17978; assay: Antimicrobial susceptibility testing: 90% growth inhibitory concentration (IC90) determination; format: cell-based; details: ATCC17978, 90% growth inhibitory concentration, Iso-Sensitest broth, optical density at 600 nm over 16h, 35±2° C., read-out: AB ATCC 17978 IC90
Description: (§1) Antimicrobial Susceptibility Testing:
(§2) 90% Growth Inhibitory Concentration (IC90) Determination
(§3) The in vitro antimicrobial activity of the compounds was determined according to the following procedure:
(§4) The assay used a 10-points Iso-Sensitest broth medium to measure quantitatively the in vitro activity of the compounds against Acinetobacter baumannii ATCC17961 or ATCC17978.
(§5) Stock compounds in DMSO were serially twofold diluted (e.g. range from 50 to 0.097 μM final concentration) in 384 wells microtiter plates and inoculated with 49 μl the bacterial suspension in Iso-Sensitest medium to have a final cell concentration of ˜5×10^(5) CFU/ml in a final volume/well of 50 ul/well. Microtiter plates were incubated at 35±2° C.
(§6) Bacterial cell growth was determined with the measurement of optical density at λ=600 nm each 20 minutes over a time course of 16h. Growth inhibition was calculated during the logarithmic growth of the bacterial cells with determination of the concentration inhibiting 50% (IC50) and 90% (IC90) of the growth.
Table 1 provides the 90% growth inhibitory concentrations (IC90) in micromoles per liter of the compounds of present invention obtained against the strain Acinetobacter baumannii ATCC17978.

SMILES | IC90
CC(=O)Nc1ccc(Nc2nccn3c(-c4ccc(Cl)cc4)cnc23)cc1C [Example 43, N-(4-((3-(4-chlorophenyl)imidazo[1,2-a]pyrazin-8-yl)amino)-2-methylphenyl)acetamide] | 0.12 µM
CC(=O)Nc1ccc(Nc2nccn3c(-c4ccc(OC(F)F)cc4)cnc23)cc1C [Example 40] | 0.13 µM
COc1ccc(-c2cnc3c(Nc4ccc(NC(C)=O)cc4)nccn23)cc1Cl [Example 17, N-(4-((3-(3-chloro-4-methoxyphenyl)imidazo[1,2-a]pyrazin-8-yl)amino)phenyl)acetamide] | 0.43 µM
CC(=O)Nc1ccc(Nc2nccn3c(-c4ccc(F)cc4)cnc23)cc1C [Example 53, N-(4-((3-(4-fluorophenyl)imidazo[1,2-a]pyrazin-8-yl)amino)-2-methylphenyl)acetamide] | 0.36 µM
COc1ccc(-c2cnc3c(Nc4ccc(S(=O)(=O)N(C)C)cc4)nccn23)cc1 [Example 77, 4-((3-(4-methoxyphenyl)imidazo[1,2-a]pyrazin-8-yl)amino)-N,N-dimethylbenzenesulfonamide] | 0.63 µM
O=C1OCCN1c1ccc(Nc2nccn3c(-c4ccc(OC(F)F)cc4)cnc23)cc1 [Example 2, 3-[4-[[3-[4-(difluoromethoxy)phenyl]imidazo[1,2-a]pyrazin-8-yl]amino]phenyl]oxazolidin-2-one] | 0.25 µM
COc1ccc(-c2cnc3c(Nc4ccc(NC(C)=O)c(C)c4)nccn23)cc1Cl [Example 11, N-[4-[[3-(3-chloro-4-methoxy-phenyl)imidazo [1,2-a]pyrazin-8-yl]amino]-2-methyl-phenyl]acetamide; 2,2,2-trifluoroacetic acid] | 0.087 µM
COc1ccc(-c2cnc3c(Nc4ccc(S(=O)(=O)NCCOCCN)c(C)c4)nccn23)cc1 [Example 61, N-(2-(2-aminoethoxy)ethyl)-4-((3-(4-methoxyphenyl)imidazo[1,2-a]pyrazin-8-yl)amino)-2-methylbenzenesulfonamide] | 0.73 µM
CNC(=O)c1cc(Nc2nccn3c(-c4ccc(OC)cc4)cnc23)ccc1Cl [Example 76, 2-chloro-5-((3-(4-methoxyphenyl)imidazo[1,2-a]pyrazin-8-yl)amino)-N-methylbenzamide] | 0.73 µM
COc1ccc(-c2cnc3c(Nc4ccc(NC(C)=O)c(C)c4)nccn23)cc1 [Example 20, N-{4-[3-(4-Methoxy-phenyl)-imidazo[1,2-a]pyrazin-8-ylamino]-2-methyl-phenyl}-acetamide] | 0.11 µM
CCc1cc(Nc2nccn3c(-c4ccc(OC)cc4)cnc23)ccc1NC(C)=O [Example 38, N-(2-ethyl-4-((3-(4-methoxyphenyl)imidazo[1,2-a]pyrazin-8-yl)amino)phenyl)acetamide] | 0.2 µM
O=C1CCCN1c1ccc(Nc2nccn3c(-c4ccc(OC(F)F)cc4)cnc23)cc1 [Example 35] | 0.15 µM
Cc1cc(Nc2nccn3c(-c4ccc(OC(F)F)cc4)cnc23)ccc1CO [Example 121, (4-((3-(4-(difluoromethoxy)phenyl)imidazo[1,2-a]pyrazin-8-yl)amino)-2-methylphenyl) methanol] | 0.67 µM
O=S1(=O)CCCN1c1ccc(Nc2nccn3c(-c4ccc(OC(F)F)cc4)cnc23)cc1 [Example 1, 3-[4-(difluoromethoxy)phenyl]-N-[4-(1,1-dioxo-1,2-thiazolidin-2-yl)phenyl]imidazo[1,2-a]pyrazin-8-amine] | 0.33 µM
COc1ccc(-c2cnc3c(Nc4ccc(NC(=O)COCCN)c(C)c4)nccn23)cc1 [Example 75, 2-(2-aminoethoxy)-N-(4-((3-(4-methoxyphenyl)imidazo[1,2-a]pyrazin-8-yl)amino)-2-methylphenyl)acetamide hydrochloride] | 0.28 µM
Cc1cc(Nc2nccn3c(-c4ccc(OC(F)F)c(F)c4)cnc23)ccc1N1CCCC1=O [Example 56, 1-(4-((3-(4-(difluoromethoxy)-3-fluorophenyl)imidazo [1,2-a]pyrazin-8-yl)amino)-2-methylphenyl)pyrrolidin-2-one] | 0.25 µM
COc1ccc(-c2cnc3c(Nc4ccc(N5CCCC5=O)c(C)c4)nccn23)cc1 [Example 58, 1-(4-((3-(4-methoxyphenyl)imidazo[1,2-a]pyrazin-8-yl)amino)-2-methylphenyl)pyrrolidin-2-one] | 0.26 µM
O=C1COCCN1c1ccc(Nc2nccn3c(-c4ccc(OC(F)F)cc4)cnc23)cc1 [Example 4, 4-[4-[[3-[4-(difluoromethoxy)phenyl]imidazo[1,2-a]pyrazin-8-yl]amino]phenyl]morpholin-3-one] | 0.33 µM
CCc1cc(Nc2nccn3c(-c4ccc(OC)c(Cl)c4)cnc23)ccc1NC(C)=O [Example 45, N-(4-((3-(3-chloro-4-methoxyphenyl)imidazo[1,2-a]pyrazin-8-yl)amino)-2-ethylphenyl)acetamide] | 0.16 µM
CC(=O)Nc1ccc(Nc2nccn3c(-c4ccc(Cl)cc4)cnc23)cc1 [Example 42, N-(4-((3-(4-chlorophenyl)imidazo[1,2-a]pyrazin-8-yl)amino)phenyl)acetamide] | 0.83 µM
COc1ccc(-c2cnc3c(Nc4ccc(NC(C)=O)c(CO)c4)nccn23)cc1 [Example 50, N-(2-(hydroxymethyl)-4-((3-(4-methoxyphenyl)imidazo[1,2-a]pyrazin-8-yl)amino)phenyl)acetamide] | 0.63 µM
COc1ccc(-c2cnc3c(Nc4ccc(CO)c(C)c4)nccn23)cc1 [Example 120] | 0.74 µM
COc1ccc(-c2cnc3c(Nc4ccc(NC(C)=O)c(C)c4)nccn23)cc1F [Example 47, N-(4-((3-(3-fluoro-4-methoxyphenyl)imidazo[1,2-a]pyrazin-8-yl)amino)-2-methylphenyl)acetamide] | 0.13 µM
Cc1cc(Nc2nccn3c(-c4ccc(OC(F)F)cc4)cnc23)ccc1NC(=O)CN1CCC(N)C1 (stereo not shown) [Example 59, 2-(3-aminopyrrolidin-1-yl)-N-(4-((3-(4-(difluoromethoxy)phenyl)imidazo[1,2-a]pyrazin-8-yl)amino)-2-methylphenyl)acetamide] | 0.25 µM
COc1ccc(-c2cnc3c(Nc4ccc(S(=O)(=O)N5CCN(C)CC5)cc4)nccn23)cc1 [Example 79, 3-(4-methoxyphenyl)-N-(4-((4-methylpiperazin-1 - yl)sulfonyl)phenyl) imidazo[1,2-a]pyrazin-8-amine] | 0.85 µM
COc1ccc(-c2cnc3c(Nc4ccc(NC(=O)COCCN)cc4)nccn23)cc1Cl [Example 14, 2-(2-aminoethoxy)-N-[4-[[3-(3-chloro-4-methoxy-phenyl)imidazo [1,2-a]pyrazin-8-yl]amino]phenyl] acetamide; 2,2,2-trifluoroacetic acid] | 0.64 µM
COc1ccc(-c2cnc3c(Nc4ccc(N5CCCCC5=O)cc4)nccn23)cc1Cl [Example 44, 1-(4-((3-(3-Chloro-4-methoxyphenyl)imidazo[1,2-a]pyrazin-8-yl)amino)phenyl)piperidin-2-one] | 0.26 µM
COc1ccc(-c2cnc3c(Nc4ccc(S(C)(=O)=O)cc4)nccn23)cc1 [Example 52, 3-(4-Methoxyphenyl)-N-(4-(methylsulfonyl)phenyl)imidazo[1,2-a]pyrazin-8-amine] | 0.98 µM

same assay, conditions: ATCC17978, 16 h, read-out: AB ATCC 17978 IC90 (uM)

SMILES | IC90
COc1ccc(-c2cnc3c(Nc4ccc5c(c4)CCCC(=O)N5)nccn23)cc1F [Example 5, 7-[[3-(3-fluoro-4-methoxy-phenyl)imidazo[1,2-a]pyrazin-8-yl]amino]-1,3,4,5-tetrahydro-1-benzazepin-2-one hydrochloride] | 0.88 µM
COc1ccc(-c2cnc3c(Nc4ccc(N(C)C(C)=O)cc4)nccn23)cc1Cl [Example 7] | 0.86 µM
CCc1cc(Nc2nccn3c(-c4ccc(OC)c(F)c4F)cnc23)ccc1NC(=O)CCN [Example 93, 3-amino-N-(4-((3-(2,3-difluoro-4-methoxyphenyl)imidazo[1,2-a]pyrazin-8-yl)amino)-2-ethylphenyl)propanamide hydrochloride] | 0.18 µM
COc1ccc(-c2cnc3c(Nc4ccc(NC(=O)COCCOCCN)cc4)nccn23)cc1Cl [Example 13, 2-[2-(2-aminoethoxy)ethoxy]-N-[4-[[3-(3-chloro-4-methoxy-phenyl)imidazo[1,2-a]pyrazin-8-yl]amino]phenyl]acetamide; 2,2,2-trifluoroacetic acid] | 0.81 µM

system: Acinetobacter baumannii ATCC17961; assay: as above; format: cell-based; details: Acinetobacter baumannii, ATCC17961, 16 h, 90% growth inhibitory concentration; Iso-Sensitest broth, optical density at 600 nm over 16h, 35±2° C.; read-out: AB ATCC 17961 IC90
Description: as §1, §2, §3, §4, §5, §6
Table 2 provides the 90% growth inhibitory concentrations (IC90) in micromoles per liter of the compounds of present invention obtained against the strain Acinetobacter baumannii ATCC17961.

SMILES | IC90
NCCCCC1CC(=O)N(c2ccc(Nc3nccn4c(-c5ccc(OC(F)F)cc5)cnc34)cc2)C1 (stereo not shown) [Example 63, 4-(4-aminobutyl)-1-(4-((3-(4-(difluoromethoxy)phenyl)imidazo[1,2-a]pyrazin-8-yl)amino)phenyl)pyrrolidin-2-one] | 36 nM
COc1ccc(-c2cnc3c(Nc4ccc([S@@](C)(=O)=NCCCN)c(C)c4)nccn23)c(F)c1F [Example 28, (+)-((3-aminopropyl)imino) (4-((3-(2,3-difluoro-4-methoxyphenyl)imidazo[1,2-a]pyrazin-8-yl)amino)-2-methylphenyl) (methyl)-16-sulfanone] | 48 nM
